Laboratory results as given in DBAASP.
Values after ≈ are worked out from the molar mass of the structure shown. One block for each compound: values may come before it.

Key:
Test in all cases: ≥ marks a high value that may be exact or a test limit, other limits are often not marked, values filed in µg/mL are converted to µM
[1] = test system: Escherichia coli DSM 1103
[2] = test system: Staphylococcus aureus DSM 1104
[3] = test system: Pseudomonas aeruginosa DSM 1117
[4] = test system: Staphylococcus epidermidis DSM 1798
[5] = test system: Mycobacterium tuberculosis H37Rv
[6] = test system: Pseudomonas aeruginosa Ps4
[7] = test system: Staphylococcus aureus ATCC 9144
[8] = test system: Pseudomonas aeruginosa ATCC 27853
[9] = test system: Corynebacterium glutamicum ATCC 13032
[10] = test system: Escherichia coli ATCC 25922
[11] = test system: Staphylococcus aureus ATCC 29213
[12] = test system: Bacillus cereus ATCC 11778
[13] = test system: Klebsiella aerogenes ATCC 13048
[14] = test system: Salmonella enterica subsp. enterica serovar Typhimurium ATCC 14028
[15] = test system: Escherichia coli ATCC 11775
[16] = test system: Staphylococcus aureus ATCC 12600
[17] = test system: Escherichia coli NCTC 10418

Compound: CC[C@H](C)[C@H](NC(=O)CNC(=O)[C@@H](NC(=O)[C@H](C)N)C(C)C)C(=O)NCC(=O)N[C@@H](C)C(=O)N[C@@H](CC(C)C)C(=O)N[C@@H](Cc1ccccc1)C(=O)N[C@@H](CC(C)C)C(=O)NCC(=O)N[C@@H](Cc1ccccc1)C(=O)N[C@@H](CC(C)C)C(=O)NCC(=O)N[C@@H](C)C(=O)N[C@@H](C)C(=O)NCC(=O)N[C@@H](CO)C(=O)N[C@H](C(=O)N[C@@H](CCSC)C(=O)NCC(=O)N[C@@H](C)C(=O)N[C@@H](CCCN=C(N)N)C(=O)N[C@@H](CO)C(N)=O)[C@@H](C)O [AVGIGALFLGFLGAAGSTMGARS]
MIC [1]: ≥ 117 µM
MIC [2]: ≥ 117 µM
MIC [3]: ≥ 117 µM
MIC [4]: ≥ 117 µM

Compound: CC(C)C[C@H](NC(=O)[C@H](Cc1c[nH]c2ccccc12)NC(=O)[C@H](Cc1c[nH]c2ccccc12)NC(=O)[C@H](CCCN=C(N)N)NC(=O)[C@H](CO)NC(=O)[C@H](CC(C)C)NC(=O)[C@H](CCCCN)NC(=O)[C@H](CCCCN)NC(=O)[C@@H](NC(=O)[C@H](C)N)C(C)C)C(=O)N[C@@H](CCCN=C(N)N)C(=O)N[C@@H](Cc1c[nH]c2ccccc12)C(=O)N[C@@H](Cc1c[nH]c2ccccc12)C(=O)N[C@@H](CCCCN)C(=O)N[C@@H](CCCCN)C(=O)O [AVKKLSRWWLRWWKK]
MIC [5]: 18.1 µM (≈ 37.5 µg/mL)

Compound: CC[C@H](C)[C@H](NC(=O)[C@H](CC(N)=O)NC(=O)[C@H](CCCN=C(N)N)NC(=O)[C@H](C)NC(=O)[C@H](Cc1c[nH]c2ccccc12)NC(=O)[C@@H](N)Cc1ccccc1)C(=O)N[C@@H](CCCN=C(N)N)C(=O)N[C@@H](CCCCN)C(=O)N[C@H](C(=O)N[C@@H](CCCN=C(N)N)C(N)=O)C(C)C [FWARNIRKVR]
MIC [6]: ≥ 186 µM

Compound: CC[C@H](C)[C@H](NC(=O)[C@H](CC(N)=O)NC(=O)[C@H](CCCN=C(N)N)NC(=O)[C@H](CC(C)C)NC(=O)[C@H](Cc1c[nH]c2ccccc12)NC(=O)[C@@H](N)Cc1ccccc1)C(=O)N[C@@H](CCCN=C(N)N)C(=O)N[C@@H](CCCCN)C(=O)N[C@H](C(=O)N[C@@H](CCCN=C(N)N)C(N)=O)C(C)C [FWLRNIRKVR]
MIC [6]: ≥ 180 µM

Compound: CC[C@H](C)[C@H](NC(=O)[C@H](CCCN=C(N)N)NC(=O)[C@@H](NC(=O)[C@H](CCCN=C(N)N)NC(=O)[C@H](CCC(N)=O)NC(=O)[C@H](Cc1c[nH]c2ccccc12)NC(=O)[C@@H](N)Cc1ccccc1)[C@@H](C)CC)C(=O)N[C@@H](CCCN=C(N)N)C(=O)N[C@@H](CCCN=C(N)N)C(N)=O [FWQRIRIRR]
MIC [6]: ≥ 188 µM

Compound: CC[C@H](C)[C@H](NC(=O)[C@H](CC(N)=O)NC(=O)[C@H](CCCN=C(N)N)NC(=O)[C@H](CCC(N)=O)NC(=O)[C@H](Cc1c[nH]c2ccccc12)NC(=O)[C@@H](N)Cc1ccccc1)C(=O)N[C@@H](CCCN=C(N)N)C(=O)N[C@@H](CCCCN)C(=O)N[C@H](C(=O)N[C@@H](CO)C(N)=O)C(C)C [FWQRNIRKVS]
MIC [6]: ≥ 187 µM

Compound: CC[C@H](C)[C@H](NC(=O)[C@H](CCCN=C(N)N)NC(=O)[C@H](Cc1c[nH]c2ccccc12)NC(=O)[C@H](CC(N)=O)NC(=O)[C@H](CCCN=C(N)N)NC(=O)[C@H](CCC(N)=O)NC(=O)[C@H](Cc1c[nH]c2ccccc12)NC(=O)[C@@H](N)Cc1ccccc1)C(=O)N[C@@H](CCCN=C(N)N)C(=O)N[C@@H](CCCN=C(N)N)C(N)=O [FWQRNWRIRR]
MIC [6]: ≥ 165 µM

Compound: CC[C@H](C)[C@H](NC(=O)[C@H](C)NC(=O)CNC(=O)[C@H](C)NC(=O)[C@H](CCCN=C(N)N)NC(=O)[C@H](CO)NC(=O)[C@H](C)NC(=O)[C@H](CCSC)NC(=O)CN)C(=O)N[C@@H](C)C(=O)NCC(=O)N[C@@H](CCCN=C(N)N)C(=O)N[C@H](C(=O)N[C@@H](C)C(=O)N[C@@H](CCCN=C(N)N)C(=O)N[C@H](C(=O)N[C@@H](C)C(=O)N[C@@H](CC(C)C)C(=O)N[C@@H](CCCN=C(N)N)C(=O)N[C@@H](C)C(=O)N[C@@H](CC(C)C)C(N)=O)C(C)C)[C@@H](C)CC [GMASRAGAIAGRIARVALRAL]
MIC [1]: 7 µM (≈ 14.6 µg/mL)
MIC [2]: 4 µM (≈ 8.32 µg/mL)
MIC [3]: ≥ 113 µM
MIC [4]: 2 µM (≈ 4.16 µg/mL)

Compound: CC(C)[C@H](NC(=O)[C@@H](NC(=O)[C@H](CCCN=C(N)N)NC(=O)[C@H](CCCN=C(N)N)NC(=O)[C@H](Cc1c[nH]c2ccccc12)NC(=O)[C@H](Cc1c[nH]c2ccccc12)NC(=O)CN)[C@@H](C)O)C(=O)N[C@@H](CCCN=C(N)N)C(=O)N[C@@H](CCCCN)C(N)=O [GWWRRTVRK]
MIC [7]: ≥ 100 µM
MIC [8]: 25 µM (≈ 31.1 µg/mL)
MIC [9]: 3.1 µM (≈ 3.85 µg/mL)
MIC [10]: 50 µM (≈ 62.2 µg/mL)

Compound: CC[C@H](C)[C@H](N)C(=O)N[C@@H](CC(C)C)C(=O)NCC(=O)N[C@@H](CCCCN)C(=O)N[C@@H](CC(C)C)C(=O)N[C@@H](Cc1c[nH]c2ccccc12)C(=O)N[C@@H](CCC(=O)O)C(=O)NCC(=O)N[C@@H](CC(C)C)C(=O)N[C@@H](CCCCN)C(=O)N[C@@H](CO)C(=O)N[C@@H](CC(C)C)C(=O)N[C@@H](Cc1ccccc1)C(N)=O [ILGKLWEGLKSLF]
MIC [11]: 33.2 µM (≈ 50 µg/mL)
MIC [12]: ≥ 66.5 µM
MIC [13]: ≥ 66.5 µM
MIC [10]: 33.2 µM (≈ 50 µg/mL)
MIC [14]: 66.5 µM (≈ 99.9 µg/mL)

Results, then the compound that gave them:

MIC [15]: 25 µM (≈ 55.1 µg/mL)
MIC [16]: 12.5 µM (≈ 27.5 µg/mL)
Compound: CC[C@H](C)[C@@H]1NC(=O)[C@H](CC(C)C)NC(=O)[C@@H](NC(=O)[C@H](Cc2ccccc2)NC(=O)[C@H](CC(C)C)NC(=O)[C@H](CCCCN)NC(=O)[C@@H]2CCCN2C(=O)[C@H](CC(C)C)NC(=O)[C@H](C)NC(=O)[C@H](C)NC(=O)[C@H](CC(C)C)NC(=O)[C@H](C)NC(=O)[C@H](CC(C)C)NC(=O)[C@H](CO)NC(=O)[C@H](CC(C)C)NC(=O)[C@@H](N)CC(C)C)CSSC[C@@H](C(=O)O)NC(=O)[C@H](CCCCN)NC(=O)[C@H](CCCCN)NC(=O)[C@H](Cc2ccccc2)NC1=O [LLSLALAALPKLFCLIFKKC]

MIC [1]: 6 µM (≈ 13.4 µg/mL)
MIC [2]: 3 µM (≈ 6.69 µg/mL)
MIC [3]: 26 µM (≈ 58 µg/mL)
MIC [4]: 2 µM (≈ 4.46 µg/mL)
Compound: CC[C@H](C)[C@H](NC(=O)[C@H](CCCN=C(N)N)NC(=O)CNC(=O)[C@H](C)NC(=O)[C@@H](NC(=O)[C@H](CCCN=C(N)N)NC(=O)[C@H](C)NC(=O)[C@@H](NC(=O)[C@H](CCCN=C(N)N)NC(=O)CNC(=O)[C@H](C)NC(=O)[C@@H](NC(=O)[C@H](CCCN=C(N)N)NC(=O)[C@H](C)NC(=O)[C@@H](NC(=O)[C@H](CCCN=C(N)N)NC(=O)CNC(=O)[C@H](C)NC(=O)[C@@H](NC(=O)[C@@H](N)CCCN=C(N)N)[C@@H](C)CC)[C@@H](C)CC)[C@@H](C)CC)[C@@H](C)CC)[C@@H](C)CC)C(=O)N[C@@H](C)C(N)=O [RIAGRIARIAGRIARIAGRIA]

MIC [17]: ≥ 70 µM
Compound: CSCC[C@H](NC(=O)[C@H](Cc1c[nH]c2ccccc12)NC(=O)[C@@H]1CCCN1C(=O)[C@@H]1CCCN1C(=O)[C@H](Cc1ccccc1)NC(=O)[C@@H](NC(=O)[C@H](Cc1cnc[nH]1)NC(=O)[C@H](Cc1ccccc1)NC(=O)[C@@H](N)CO)C(C)C)C(=O)N[C@H]1CSSC[C@@H](C(=O)O)NC(=O)[C@H](CCCCN)NC(=O)[C@H](CCCCN)NC(=O)[C@H](CC(C)C)NC(=O)[C@H](CO)NC(=O)[C@H](CCCCN)NC1=O [SFHVFPPWMCKSLKKC]

MIC [1]: ≥ 122 µM
MIC [2]: ≥ 122 µM
MIC [3]: ≥ 122 µM
MIC [4]: ≥ 122 µM
Compound: CC(C)C[C@H](NC(=O)[C@H](CCCN=C(N)N)NC(=O)[C@@H](NC(=O)[C@@H]1CCCN1C(=O)[C@@H]1CCCN1C(=O)[C@@H]1CCCN1C(=O)[C@H](CC(C)C)NC(=O)[C@H](CCCN=C(N)N)NC(=O)[C@@H](NC(=O)[C@@H]1CCCN1C(=O)[C@@H]1CCCN1C(=O)[C@@H]1CCCN1C(=O)[C@H](CC(C)C)NC(=O)[C@H](CCCN=C(N)N)NC(=O)[C@@H](N)C(C)C)C(C)C)C(C)C)C(=O)N1CCC[C@H]1C(=O)N1CCC[C@H]1C(=O)N1CCC[C@H]1C(=O)O [VRLPPPVRLPPPVRLPPP]
